Data reported in patent US11992013B2, “Feral hog toxicant” (priority 2019, dated 2024).

Columns and labels:
feral hogs = assay: Vomiting after toxicant baits are consumed; type: in vivo, Sus scrofa; conditions: preliminary results
Excerpt: Another difficulty of using sodium nitrite as a toxicant is that feral hogs can sometimes vomit the baits. The acidic decomposition of sodium nitrite in gastric juices can lead to the release of noxious, gaseous by-products that can induce vomiting. This tendency can be counteracted by incorporating into the bait antiemetic compounds, antacid compounds, or both. Antacids include such compounds as sodium carbonate, sodium bicarbonate, calcium carbonate, magnesium hydroxide, magnesium carbonate, potassium carbonate, amines (e.g. from fish), and potassium bicarbonate. Antacids such as sodium carbonate also help maintain a higher pH level before the bait is consumed. Then after consumption the antacids can help neutralize gastric acid, both inhibiting the breakdown of sodium nitrite in vivo, and also helping to reduce vomiting. […] Anti-emetics can also be employed, for example taste-free ginger extracts containing gingerols. […] Gingerols have the same mechanism of action as drugs such as Zofran (ondansetron), which are prescribed in humans for the treatment of severe, chemotherapy-induced nausea. Other anti-emetics known in the art may also be used.

[1] = tested on: methemoglobin reductase (MR); assay: Inhibition of methemoglobin reductase (MR) by luteolin; type: biochemical; conditions: assuming about 65 mL blood per kilogram body mass in the pig; no experimental data
Excerpt: An optional embodiment enhances the effective of sodium nitrite by incorporating the flavonoid luteolin into a bait. Luteolin is found in botanical sources including celery, broccoli, green pepper, parsley, thyme, dandelion, perilla, chamomile, carrots, olive oil, peppermint, rosemary, oranges and other citrus, oregano, and certain palm seeds. The mechanism of sodium nitrite toxicity is to oxidize hemoglobin in the blood to methemoglobin, converting the iron atom from the ferrous form to the ferric form. Methemoglobin has a poor ability to transport oxygen to cells. Methemoglobin is naturally present in mammalian blood at 1-2% of total hemoglobin, a level that is ordinarily tempered by the enzyme methemoglobin reductase (MR). […] Because hogs have a poor ability to detoxify methemoglobin build-up, they are inherently more prone to developing high concentrations of methemoglobin upon exposure to sodium nitrite, which can quickly lead to death. In an optional embodiment, this physiology is further exploited by incorporating MR inhibitors into the bait, thus facilitating control of feral hogs while releasing less total nitrite into the environment. Luteolin is a highly-potent, commercially-available, naturally-occurring, tasteless MR inhibitor. Adding small amounts of luteolin to a nitrite-containing bait will reduce a hog's ability to detoxify methemoglobin. […]

[2] = molecular target: methemoglobin reductase (MR); conditions: MR inhibitor; cited from earlier work
[3] = neutral or acidic pH; cited from earlier work
adult hogs = conditions: cited from earlier work

**Q.** Which “effect on vomiting after toxicant baits are consumed” value (feral hogs) does the source give for `O=C([O-])[O-].[Na+].[Na+]` [sodium carbonate] here?
**A.** Its value is “effective in reducing vomiting”.

**Q.** With `O=c1cc(-c2ccc(O)c(O)c2)oc2cc(O)cc(O)c12` [luteolin] as the compound, how does the “amount of luteolin needed for 50% inhibition of the MR enzyme” value [1] read?
**A.** Its value is ~2 micrograms per kilogram body mass.

**Q.** What about the IC50 [2] of the same compound?
**A.** Its IC50 is roughly 110 nM.

**Q.** What about the water solubility [3] of the same compound?
**A.** Its water solubility is “poorly soluble”.

**Q.** For `O=NO` [sodium nitrite], which LD90 (adult hogs) is on record?
**A.** The LD90 was “about 189 mg/kg”.
